Laboratory results reported in US20220388990A1, “INHIBITORS OF CYCLIN-DEPENDENT KINASES” (Kinnate Biopharma Inc., priority 2019, published 2022).

How the values were obtained:
CDK12 wt/CycK = molecular target: T1, CDK12 wt/CycK (Homo sapiens, UniProt Q9NYV4); assay: Radiometric protein kinase assay (33PanQinase), assay condition 2, thiol containing conditions; format: biochemical; settings: thiol containing conditions (1.2 mM DTT), ATP 0.3 μM
T1 construct: either as full-length or enzymatically active fragments
Experimental: Example 1—Assay condition 2 (thiol containing conditions)
Objective: The IC50 profile of test compounds was determined using protein kinases. IC50 values were measured by testing 10 concentrations (1×10^−04M, 3×10^−05M, 1×10^−05M, 3×10^−06M, 1×10^−06M, 3×10^−07M, 1×10^−07M, 3×10^−08M, 1×10^−08M, and 3×10^−09M) of each compound in singlicate.
Test compounds: The compounds were provided as pre-weighed powders in vials. The compounds were dissolved to 1×10^−02M by adding DMSO. 100 μl of each of the resulting stock solutions were transferred into column 2 of four 96 well “master plates”
Prior to testing, the 1×10^−02M stock solutions in column 2 of the master plates were subjected to a serial, semi-logarithmic dilution using 100% DMSO as a solvent. […] Column 1 and 7 were filled with 100% DMSO as controls. Subsequently, 2×10 μl from each well of the serial diluted copy plates were aliquoted with a 96 channel pipettor into two identical sets of “compound dilution plates”.
In the process, 90 μl H2O were added to each well of a set of compound dilution plates. To minimize potential precipitation, the H2O was added to each plate only a few minutes before the transfer of the compound solutions into the assay plates. Each plate was shaken thoroughly, resulting in a “compound dilution plate/ 10% DMSO”.
For the assays, 5 μl solution from each well of the compound dilution plates/10% DMSO were transferred into the assay plates. The final volume of the assay was 50 μl. All compounds were tested at 10 final assay concentrations in the range from 1×10^−04M to 3×10^−09M, in singlicate. The final DMSO concentration in the reaction cocktails was 1% in all cases.
Recombinant protein kinases: All protein kinases were expressed in Sf9 insect cells or in E.coli as recombinant GST-fusion proteins or His-tagged proteins, either as full-length or enzymatically active fragments. All kinases were produced from human cDNAs and purified by either GSH-affinity chromatography or immobilized metal. Affinity tags were removed from a number of kinases during purification. The purity of the protein kinases was examined by SDS-PAGE/Coomassie staining, the identity was checked by mass spectroscopy.
Protein kinase assay: A radiometric protein kinase assay (^33PanQinase® Activity Assay) was used for measuring the kinase activity. All kinase assays were performed in 96-well FlashPlates™ from PerkinElmer (Boston, MA, USA) in a 50 μl reaction volume. The reaction cocktail was pipetted in four steps in the following order: • 20 μl of assay buffer (standard buffer) • 5μl of ATP solution (in H2O) • 5μl of test compound (in 10% DMSO) • 20 μl enzyme/substrate mix
The assay for all protein kinases contained 70 mM HEPES-NaOH pH 7.5, 3 mM MgCl2, 3 mM MnCl2, 3 μM Na-orthovanadate, 1.2 mM DTT, 50 μg/ml PEG20000, ATP (variable concentrations, corresponding to the apparent ATP-K. of the respective kinase), [γ-^33P]-ATP (approx. 9×10^05cpm per well), protein kinase, and substrate.
The following amounts of enzyme and substrate were used per well:
The reaction cocktails were incubated at 30° C. for 60 minutes. The reaction was stopped with 50 μl of 2% (v/v) H3PO4, plates were aspirated and washed two times with 200 μl 0.9% (w/v) NaCl. Incorporation of ^33Pi was determined with a microplate scintillation counter (Microbeta, Wallac). All assays were performed with a BeckmanCoulter/SAGIANTM Core System.
Evaluation of raw data: The median value of the counts in column 1 (n=8) of each assay plate was defined as “low control”. This value reflects unspecific binding of radioactivity to the plate in the absence of a protein kinase but in the presence of the substrate. The median value of the counts in column 7 of each assay plate (n=8) was taken as the “high control”, i.e. full activity in the absence of any inhibitor. The difference between high and low control was taken as 100% activity. […]

[1] = tested on: panel of 1,151 cancer cell lines; settings: in 52% of 1,151 cancer cell lines; cited from earlier work

T1 sequence (Q9NYV4 whole entry, the tested form may be a part): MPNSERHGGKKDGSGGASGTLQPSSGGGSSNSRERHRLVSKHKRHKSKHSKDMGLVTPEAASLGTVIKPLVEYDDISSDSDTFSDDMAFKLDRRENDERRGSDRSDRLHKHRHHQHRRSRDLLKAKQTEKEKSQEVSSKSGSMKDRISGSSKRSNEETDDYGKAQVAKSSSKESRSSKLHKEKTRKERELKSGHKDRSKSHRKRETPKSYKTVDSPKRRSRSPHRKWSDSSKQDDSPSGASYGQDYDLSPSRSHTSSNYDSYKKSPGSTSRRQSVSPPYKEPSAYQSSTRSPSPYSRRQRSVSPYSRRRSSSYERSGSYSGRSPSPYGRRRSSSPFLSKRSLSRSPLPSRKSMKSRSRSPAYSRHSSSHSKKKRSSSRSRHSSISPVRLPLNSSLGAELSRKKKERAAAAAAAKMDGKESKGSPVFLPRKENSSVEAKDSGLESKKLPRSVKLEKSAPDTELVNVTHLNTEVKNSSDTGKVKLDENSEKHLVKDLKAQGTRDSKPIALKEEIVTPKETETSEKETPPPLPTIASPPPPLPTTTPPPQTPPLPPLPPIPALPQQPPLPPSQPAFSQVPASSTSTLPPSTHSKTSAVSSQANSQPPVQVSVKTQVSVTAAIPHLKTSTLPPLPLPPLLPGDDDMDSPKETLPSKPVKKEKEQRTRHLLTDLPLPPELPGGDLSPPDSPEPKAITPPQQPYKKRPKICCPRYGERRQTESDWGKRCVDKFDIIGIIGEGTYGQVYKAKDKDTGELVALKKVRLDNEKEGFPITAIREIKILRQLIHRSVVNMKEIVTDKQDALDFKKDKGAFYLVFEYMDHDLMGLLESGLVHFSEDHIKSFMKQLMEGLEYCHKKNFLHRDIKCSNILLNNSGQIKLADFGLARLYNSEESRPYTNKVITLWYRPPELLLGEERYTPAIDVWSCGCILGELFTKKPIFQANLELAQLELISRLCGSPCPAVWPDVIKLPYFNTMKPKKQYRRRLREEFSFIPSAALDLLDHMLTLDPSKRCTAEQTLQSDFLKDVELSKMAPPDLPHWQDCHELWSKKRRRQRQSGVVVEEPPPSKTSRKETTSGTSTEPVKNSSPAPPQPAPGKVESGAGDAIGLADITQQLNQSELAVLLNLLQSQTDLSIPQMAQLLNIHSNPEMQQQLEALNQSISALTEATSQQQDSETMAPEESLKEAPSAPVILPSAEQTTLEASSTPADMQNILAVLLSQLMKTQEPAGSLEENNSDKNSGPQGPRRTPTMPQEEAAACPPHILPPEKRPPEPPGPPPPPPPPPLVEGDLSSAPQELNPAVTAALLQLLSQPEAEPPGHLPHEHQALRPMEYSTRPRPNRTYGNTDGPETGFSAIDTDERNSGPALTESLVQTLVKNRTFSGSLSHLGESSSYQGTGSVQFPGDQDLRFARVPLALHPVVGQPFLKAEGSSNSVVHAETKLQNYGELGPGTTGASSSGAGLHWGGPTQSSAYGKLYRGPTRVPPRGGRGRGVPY
T1 sequence (O75909 whole entry partner, the tested form may be a part): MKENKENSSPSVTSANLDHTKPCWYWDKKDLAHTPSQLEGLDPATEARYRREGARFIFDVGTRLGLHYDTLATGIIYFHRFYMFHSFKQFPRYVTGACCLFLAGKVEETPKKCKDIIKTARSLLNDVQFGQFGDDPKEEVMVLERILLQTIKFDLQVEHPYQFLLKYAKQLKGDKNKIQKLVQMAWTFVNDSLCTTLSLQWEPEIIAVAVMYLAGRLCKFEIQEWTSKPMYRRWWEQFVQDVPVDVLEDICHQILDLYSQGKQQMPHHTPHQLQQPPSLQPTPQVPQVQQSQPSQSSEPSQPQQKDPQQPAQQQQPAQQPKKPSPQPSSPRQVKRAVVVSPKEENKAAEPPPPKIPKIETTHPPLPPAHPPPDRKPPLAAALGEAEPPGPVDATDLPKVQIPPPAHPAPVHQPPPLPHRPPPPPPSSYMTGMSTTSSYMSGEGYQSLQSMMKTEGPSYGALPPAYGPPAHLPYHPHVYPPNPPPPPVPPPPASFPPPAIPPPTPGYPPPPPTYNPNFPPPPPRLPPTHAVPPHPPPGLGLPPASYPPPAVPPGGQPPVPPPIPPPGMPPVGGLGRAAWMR

IC50 (CDK12 wt/CycK)	Compound	IC50 [1]
0.1 to 1 µM	C=CC(=O)Nc1ccc2c(N3CC[C@@H](Nc4ncc(C#N)cn4)C3)nc(OCC(F)(F)F)nc2c1 [Example 32, (R)—N-(4-(3-((5-cyanopyrimidin-2-yl)amino)pyrrolidin-1-yl)-2-(2,2,2-trifluoroethoxy)quinazolin-7-yl)acrylamide]	–
≤ 0.1 µM	CC#CC(=O)Nc1ccc2c(N3CC[C@@H](Nc4ncc(Br)cn4)C3)nccc2c1 [Example 33, (R)—N-(1-(3-((5-bromopyrimidin-2-yl)amino)pyrrolidin-1-yl)isoquinolin-6-yl)but-2-ynamide]	–
≤ 0.1 µM	Cc1nc(N2CC[C@@H](Nc3ncc(Cl)c(-c4cnn5ccccc45)n3)C2)c2ccc(NC(=O)/C=C/CN(C)C)cc2n1 [Example 35, (R,E)—N-(4-(3-((5-chloro-4-(pyrazolo[1,5-a]pyridin-3-yl)pyrimidin-2-yl)amino)pyrrolidin-1-yl)-2-methylquinazolin-7-yl)-4-(dimethylamino)but-2-enamide]	–
≤ 0.1 µM	C=CC(=O)N(C)c1ccc2c(N3CC[C@@H](Nc4ncc(C#N)cn4)C3)nccc2c1 [Example 36, (R)—N-(1-(3-((5-cyanopyrimidin-2-yl)amino)pyrrolidin-1-yl)isoquinolin-6-yl)-N-methylacrylamide]	–
≤ 0.1 µM	C=CC(=O)Nc1ccc2c(N3CC[C@@H](Nc4ncc(C#N)cn4)C3)nc(N3CCOCC3)cc2c1 [Example 37, (R)—N-(1-(3-((5-cyanopyrimidin-2-yl)amino)pyrrolidin-1-yl)-3-morpholinoisoquinolin-6-yl)acrylamide]	–
≤ 0.1 µM	C=CC(=O)N(C)c1ccc2c(N3CC[C@@H](Nc4ncc(C#N)cn4)C3)nc(C)nc2c1 [Example 39, (R)—N-(4-(3-((5-cyanopyrimidin-2-yl)amino)pyrrolidin-1-yl)-2-methylquinazolin-7-yl)-N-methylacrylamide]	–
≤ 0.1 µM	C=CC(=O)N(C)c1ccc2c(N3CC[C@@H](Nc4ncc(Br)cn4)C3)nc(C)nc2c1 [Example 40, (R)—N-(4-(3-((5-bromopyrimidin-2-yl)amino)pyrrolidin-1-yl)-2-methylquinazolin-7-yl)-N-methylacrylamide]	–
≤ 0.1 µM	C=CC(=O)N(C)c1ccc2c(N3CC[C@@H](Nc4ncc(C#N)cn4)C3)nc(N3CCN(C)CC3)nc2c1 [Example 41, (R)—N-(4-(3-((5-cyanopyrimidin-2-yl)amino)pyrrolidin-1-yl)-2-(4-methylpiperazin-1-yl)quinazolin-7-yl)-N-methylacrylamide]	–
≤ 0.1 µM	C=CC(=O)N(C)c1ccc2c(N3CC[C@@H](Nc4ncc(C#N)cn4)C3)nc(C3=CCN(C)CC3)cc2c1 [Example 42, (R)—N-(1-(3-((5-cyanopyrimidin-2-yl)amino)pyrrolidin-1-yl)-3-(1-methyl-1,2,3,6-tetrahydropyridin-4-yl)isoquinolin-6-yl)-N-methylacrylamide]	–
–	CN(C)C/C=C/C(=O)Nc1ccc(C(=O)Nc2cccc(Nc3ncc(Cl)c(-c4c[nH]c5ccccc45)n3)c2)cc1 [THZ1]	< 0.2 µM
